Laboratory results from patent publication US20050234100A1, “Insulin resistance as new action of loperamide” (Yu Sheng Pharmaceutical Co., Ltd., priority 2004, published 2005).

What was measured:
[1] = tested on: fructose-rich chow-fed Wistar rats (insulin resistance); assay: intraperitoneal glucose tolerance test (IGTT) in fructose-induced insulin resistant rats; type: in vivo
Description: (§1) Animals were food-restricted and given only water to drink for overnight before the experiment. On the morning of examination, the basal blood sample (0.1 ml) drawn from the tail veins of these rats were regarded as 0 min samples. Then, each animal was immediately received an intraperitoneal injection of glucose at 1 g/kg body wt to induce the glucose tolerance test (IGTT). Blood samples from the tail vein were drawn at 5, 10, 20, 30, 60, 90, 120 min after the glucose feeding for measurement of plasma levels of glucose and insulin. Immediately after the completion of the IGTT, all animals received 2 ml of sterile saline subcutaneously to compensate for plasma loss. The obtained whole blood was thoroughly mixed with 10 IU heparin and centrifuged at 13,000×g to separate the plasma. Concentration of plasma glucose was measured by the glucose oxidase method via an analyzer (Quik-Lab, Ames, Miles Inc., Elkhart, Ind., USA) with samples run in duplicate. Enzyme-linked immunosorbent assay was carried out to measure plasma insulin using the commercial kit (Penisula Lab. Inc., Belmont, Calif., USA). Glucose-insulin index was calculated as the product of the glucose and insulin areas under the curve (AUC) as described previously (Kara et al., 2000). In order to evaluate whether loperamide could improve insulin resistance, four different doses of loperamide (2 ? 6 ? 12 ? 18 μg/kg) were injected into abdomen of each animal 30 minutes before the injection of glucose.
After 2 weeks on standard chow (Purina Mills, Inc.), half of the Wistar rats were randomly assigned to receive the fructose-rich chow (Teklad, Madison, Wis.) containing 60% fructose for 4 additional weeks to induce insulin resistance that was confirmed by the loss of tolbutamide action. The other rats still received standard chow during the 4-week period.
(§2) The blood sample was centrifuged to obtain plasma. Then, 10 μl of plasma was mixed with 1.0 ml of Glucose Kit Reagent (Biosystems S.A., Barcelona, Spain) at 37° C. for 10 minutes. The glucose concentration was measured in duplicate using Quik-lab analyzer (Ames, Miles Inc., Elkhart, Ind., USA) and expressed to the value of mg/dl. Results of plasma glucose lowering activity were calculated as percentage decrease of the initial value according to the formula: (Gi−Gt)/Gi×100% where Gi was the initial glucose concentration and Gt was the plasma glucose concentration after treatment of loperamide or same volume of vehicle.
(§3) Enzyme-linked immunosorbent assay (ELISA) was carried out to measure plasma insulin using the commercial kit (Penisula Lab. Inc., Belmont, Calif., USA). The measurement principle utilized the polyclonal antibodies in rabbit to directly identify the carboxyl-terminal of human insulin. Biotinylated peptide would compete with test subject the integration position with antibodies. After washing away the biotinylated peptides that was not integrated with antibodies, streptavidin-conjugated Horseradish Peroxidase (SA-HRP) was used to react with immobilized primary antibody/biotinylated peptide complex. Then, TMB (3,3′,5,5′-Tetramethyl Benzidine Dihydrochloride) is added to react with HRP and then yellow color was shown. The lightness or darkness of color was determined by the amount of biotinylated peptide integrated with antibodies. […] The standard curve was ploted according to the amounts of light absorption of standard subjects at 450 nm. Then through log/logit, the insulin concentration was calculated using MicroReader™ 4 Plus.
Using glucose-insulin index (Kara et al., 2000) as indicator, effect of loperamide on insulin resistance was investigated in fructose-fed rats. The control group was treated with the same volume of saline, while test groups were injected loperamide at four doses (2 ? 6 ? 12 ? 18 μg/kg) into abdomens. […]

[2] = tested on: Zucker-diabetic fatty rats; assay: glucose challenge test in Zucker-diabetic fatty rats; type: in vivo; details: loperamide 2, 6, 18 μg/kg
Description: as §1, §2, §3
In order to know similar action of loperamide is also effective in genetic animal, the present study employed the Zucker-diabetic fatty rats to investigate IGTT in addition. Also, control group was treated with the same volume of vehicle (saline). The only difference is that glucose (0.5 g/kg) was given by intravenous injection at 30 minutes later of treatment.

[3] = tested on: C2C12 myoblasts; assay: 2-DG glucose uptake in C2C12 myoblasts; type: cell-based, mouse
Description: (§4) The C2C12 cells, obtained from Culture Collection and Research Center (CCRC 60083) of the Food Industry Institute (Hsin-Chiu City, Taiwan) were plated at 5×10^4 cells/dish in 35-mm diameter culture dishes in Dulbecco's modified Eagle's medium (DMEM) (GIBCO BRL, Gaithersburg, Md.) supplemented with 10% fetal bovine serum (FBS) (GIBCO BRL) and 1% antibiotic solution (penicillin 10,000 U/ml, streptomycin 10 mg/ml, amphotericin B 25 μg/ml) and were grown to 80% confluence at 37° C. in humidified atmosphere containing 5% CO2. Myoblast differentiation was induced with DMEM supplemented with 5% horse serum, L-glutamine, and penicillin/streptomycin for 72 h. Differentiated myotubes were starved for 5 h in serum-free DMEM before treatment as described previously (Sheriff et al., 1992).
Glucose uptake was determined using 2-[^14C]-deoxy-D-glucose (2-DG) (New England Nuclear, Boston, Mass.). After 5 h of serum starvation, cells were incubated with or without pharmacological inhibitors at indicated concentrations for 30 min at 37° C. Then, the cells were incubated with loperamide at indicated concentrations at 37° C. for another 30 min under continuous shaking at 40 cycles/min. The cells were further incubated with 2-DG (1 μCi/ml) for 5 min at 37° C. Uptake was terminated by aspiration of the solution. Cells were then washed three times, and radioactivity associated with the cells was determined by cell lysis in 1 M NaOH, and the aliquots were neutralized to be estimated in scintillation counter. 2-DG uptake was expressed as the percentage of the basal 2-DG uptake that was taken as 100% from samples incubated with DMEM only. Nonspecific uptake was obtained by parallel determinations in the presence of 20 μmol/l cytochalasin B (Sigma, St. Louis, Mo., USA).

[4] = tested on: TNF-α induced insulin resistant C2C12 myoblasts; assay: insulin-stimulated glucose uptake in TNF-α induced insulin resistant C2C12 myoblasts; type: cell-based, mouse; details: for glucose uptake stimulated by insulin in TNF-α treated C2C12 myoblasts, antagonist alone: without loperamide
Description: as §4
Cultured C2C12 myoblasts (5×10^6) were incubated with loperamide at desired concentration or the same volume of vehicle in a cultivation condition oxygenated with a mixture of 95% O2 and 5% CO2 at 37° C. temperature for 3 days. Then, tumor necrosis factor-α (TNF-α) at concentration of 10 ng/ml was added. One hour later, cells were flushed down with 0.05% trypsin and put under centrifugal force at 13,000 rpm for 5 minutes, and clear liquid on top was then thrown away. Insulin ([…]) was used to simulate glucose uptake into cells using 2-[1-^14C]-Deoxy-D-Glucose (2-DG) (the final concentration of isotope was 0.25 μCi/ml) as indicator for 5-min incubation. The reaction was terminated in ice-bath. Then, C2C12 myoblasts were washed with buffer liquid three times. Finally, cells were lysed with 1 M NaOH and put into scintillation vial. The 2-DG specific uptake of cells was measured as indicated above.
The effect of loeramide on insulin resistance was further investigated in C2C12 myoblasts using TNF-α induced insulin resistance as described previously (Ruan et al., 2002; Mikael et al., 2002). Incubation with loperamide for 3 days at desired concentration, C2C12 myoblasts were treated with TNF-α (10 ng/ml) for one hour. Then, insulin was used to stimulate glucose uptake using 2-DG as indicator following the above method.

[5] = tested on: STZ-induced type-I diabetic rats; details: intravenous injection; cited from earlier work
[6] = TNF-α treated C2C12 myoblasts, antagonist dose dependence

## CN(C)C(=O)C(CCN1CCC(O)(c2ccc(Cl)cc2)CC1)(c1ccccc1)c1ccccc1 [loperamide]
[1]; fructose-fed rats, loperamide 2, 6, 12, 18 μg/kg into abdomen, 60 minutes after injection (30 minutes after 1 g/kg glucose i.p.), vs control group
  raise of plasma glucose during IGTT: reduce the raise of plasma glucose significantly
[1]; fructose-fed rats, loperamide 2-18 μg/kg into abdomen
  plasma insulin levels and incremental area under the insulin curve during IGTT: lowered
[1]; fructose-fed rats, loperamide 2-18 μg/kg into abdomen, vs vehicle-treated control
  total AUC for the glucose response during IGTT: markedly lower than that from vehicle-treated control
[1]; fructose-rich chow-fed rats, loperamide 2-18 μg/kg into abdomen, index = product of glucose and insulin AUC
  glucose-insulin index during IGTT: reduced the value of glucose-insulin index
[2]
  AUC of plasma glucose: inhibited by loperamide but at a higher dosing
  glucose-insulin index: dose-dependently decreased
  total area (AUC) of plasma insulin: reduced by loperamide in a dose-dependent manner
[2]; 5 min after glucose injection
  plasma insulin after glucose challenge: reduction of plasma insulin by loperamide was obtained in a dose-dependent fashion
[2]; 35 min after treatment (5 min after 0.5 g/kg glucose i.v.)
  plasma glucose after glucose challenge: lowering of plasma glucose
[3]; C2C12 myoblasts about 10^6 cells, 37° C.
  incubation time to maximal plateau of 2-DG uptake: about 25 min
[3]; loperamide 10 nM to 10 μM, 30 min incubation
  2-DG uptake, concentration dependence: increase of 2-DG uptake in a concentration-dependent manner
[3]; loperamide 10 μM (maximal concentration), N=8
  glucose uptake relative to control: about 1.3 times of the control
[3]; loperamide 10 μM, no antagonist, 8 experiments
  2-DG uptake: 204.3±4.7 pmol/mg protein/5 min
[4]; loperamide 10 μM (maximal concentration)
  glucose uptake in TNF-α induced insulin resistant C2C12 myoblasts: reversed the glucose uptake in TNF-α induced insulin resistant C2C12 myoblasts to the level near normal control
[4]; loperamide incubation 3 days, TNF-α 10 ng/ml 1 hour, dose dependence
  glucose uptake stimulated by insulin in TNF-α treated C2C12 myoblasts: reversed the glucose uptake stimulated by insulin in TNF-α treated C2C12 myoblasts in a dose-dependent manner
[5]
  plasma glucose: produced plasma glucose lowering effect

## C=CCN1CC[C@]23c4c5ccc(O)c4O[C@H]2/C(=N/N=C2\CC[C@@]4(O)[C@H]6Cc7ccc(O)c8c7[C@@]4(CCN6CC=C)[C@H]2O8)CC[C@@]3(O)[C@H]1C5 [naloxonazine]
[4]; [6]
  effect of antagonist on action of loperamide (10 μM): inhibited the effect of loperamide in a dose-dependent manner
[4]; antagonist at 1 μM
  effect of antagonist on action of loperamide (10 μM): eliminated the action of loperamide
  glucose uptake stimulated by insulin in TNF-α treated C2C12 myoblasts, antagonist alone: did not modify the glucose uptake

## C=CCN1CC[C@]23c4c5ccc(O)c4O[C@H]2C(=O)CC[C@@]3(O)[C@H]1C5 [naloxone]
[1]; naloxone 1 mg/kg 1 hour before loperamide 18 μg/kg, fructose-rich chow-fed rats
  action of loperamide to lower glucose-insulin index in the presence of naloxone: reversed to that near to the value in fructose-rich chow-fed rats received vehicle treatment
[1]; naloxone 1 mg/kg, fructose-rich chow-fed rats
  glucose-insulin index, naloxone alone: did not modify the value of glucose-insulin index directly
[3]; naloxone 0.1 μM, 8 experiments
  loperamide (10 μM)-induced 2-DG uptake in the presence of antagonist: 183.2±4.1 pmol/mg protein/5 min
[3]; naloxone 1 μM, 8 experiments
  loperamide (10 μM)-induced 2-DG uptake in the presence of antagonist: 169.9±5.0 pmol/mg protein/5 min
[4]; [6]
  effect of antagonist on action of loperamide (10 μM): inhibited the effect of loperamide in a dose-dependent manner
[4]; antagonist at 1 μM
  effect of antagonist on action of loperamide (10 μM): eliminated the action of loperamide
  glucose uptake stimulated by insulin in TNF-α treated C2C12 myoblasts, antagonist alone: did not modify the glucose uptake
